Measured values: BigSolDB 2.1

O=C(O)c1ccc(Cl)cc1Cl
solubility (mole fraction)
Conditions	in acetone	in acetonitrile	in ethanol	in ethyl acetate	in isobutanol	in isopropanol	in methanol	in n-butanol	in n-propanol	in toluene
273.15 K	0.0323	0.00318	0.0364	0.0232	0.0242	0.0367	0.0261	0.0374	0.0348	0.00132
278.15 K	0.0359	0.00361	0.04	0.0263	0.0281	0.0412	0.0294	0.0418	0.0385	0.00174
283.15 K	0.0394	0.00451	0.0442	0.0308	0.0326	0.0459	0.0331	0.0468	0.0422	0.0022
288.15 K	0.0439	0.00531	0.0485	0.0347	0.0375	0.0501	0.0369	0.0511	0.0465	0.00284
293.15 K	0.0482	0.00597	0.0537	0.0395	0.043	0.0565	0.0411	0.0563	0.052	0.0036
298.15 K	0.0531	0.00702	0.0591	0.0441	0.0483	0.0627	0.0458	0.0616	0.0575	0.00433
303.15 K	0.0585	0.00786	0.065	0.0484	0.0535	0.0699	0.0505	0.0676	0.0631	0.00552
308.15 K	0.0648	0.00929	0.0719	0.0537	0.0597	0.0769	0.0556	0.0746	0.0695	0.00671
313.15 K	0.0713	0.0103	0.0788	0.0595	0.066	0.0849	0.0616	0.0814	0.0763	0.00837
318.15 K	0.0784	0.0115	0.0849	0.0654	0.0719	0.0944	0.0673	0.0891	0.0823	0.00993
